# Tests used:
# [1] = In vitro effect on microtubule assembly relative to that of Taxol, expressed as ED50/ED50 (Taxol=1); assay type: functional
# [2] = tested on: B16; assay: In vitro effect on B16 melanoma cytotoxicity relative to that of Taxol, expressed as ED50/ED50 (Taxol=1); assay type: functional, Mus musculus
Compound,ED50 ratio [1],ED50 ratio [2]
CC(=O)O[C@H]1C(=O)[C@@]2(C)[C@H]([C@H](OC(=O)c3ccccc3)[C@]3(O)C[C@H](OC(=O)[C@H](O)[C@@H](N)c4ccccc4)C(C)=C1C3(C)C)[C@]1(OC(C)=O)CO[C@@H]1C[C@@H]2O,21,–
CC(=O)O[C@H]1C(=O)[C@@]2(C)[C@H]([C@H](OC(=O)c3ccccc3)[C@]3(O)C[C@H](OC(=O)[C@H](O)[C@@H](NC(=O)c4ccc(Cl)c(Cl)c4)c4ccccc4)C(C)=C1C3(C)C)[C@]1(OC(C)=O)CO[C@@H]1C[C@@H]2O,2.1,10.6
CC(=O)O[C@H]1C(=O)[C@@]2(C)[C@H]([C@H](OC(=O)c3ccccc3)[C@]3(O)C[C@H](OC(=O)[C@H](O)[C@@H](NC(=O)c4ccc(F)cc4)c4ccccc4)C(C)=C1C3(C)C)[C@]1(OC(C)=O)CO[C@@H]1C[C@@H]2O,1.2,4.3
CC(=O)O[C@H]1C(=O)[C@@]2(C)[C@H]([C@H](OC(=O)c3ccccc3)[C@]3(O)C[C@H](OC(=O)[C@H](O)[C@@H](NC(=O)c4ccc([N+](=O)[O-])cc4)c4ccccc4)C(C)=C1C3(C)C)[C@]1(OC(C)=O)CO[C@@H]1C[C@@H]2O,2,20.7
COc1ccc(C(=O)N[C@@H](c2ccccc2)[C@@H](O)C(=O)O[C@H]2C[C@@]3(O)[C@@H](OC(=O)c4ccccc4)[C@@H]4[C@]5(OC(C)=O)CO[C@@H]5C[C@H](O)[C@@]4(C)C(=O)[C@H](OC(C)=O)C(=C2C)C3(C)C)cc1,0.6,1.3
CC(=O)O[C@H]1C(=O)[C@@]2(C)[C@H]([C@H](OC(=O)c3ccccc3)[C@]3(O)C[C@H](OC(=O)[C@H](O)[C@@H](NC(=O)c4ccc(Cl)cc4)c4ccccc4)C(C)=C1C3(C)C)[C@]1(OC(C)=O)CO[C@@H]1C[C@@H]2O,2.4,1.5
CC(=O)O[C@H]1C(=O)[C@@]2(C)[C@H]([C@H](OC(=O)c3ccccc3)[C@]3(O)C[C@H](OC(=O)[C@H](O)[C@@H](NC(=O)c4ccccc4C)c4ccccc4)C(C)=C1C3(C)C)[C@]1(OC(C)=O)CO[C@@H]1C[C@@H]2O,1.9,7.5
CC(=O)O[C@H]1C(=O)[C@@]2(C)[C@H]([C@H](OC(=O)c3ccccc3)[C@]3(O)C[C@H](OC(=O)[C@H](O)[C@@H](NC(=O)c4ccc(C)cc4)c4ccccc4)C(C)=C1C3(C)C)[C@]1(OC(C)=O)CO[C@@H]1C[C@@H]2O,1.6,1.4
CC(=O)O[C@H]1C(=O)[C@@]2(C)[C@H]([C@H](OC(=O)c3ccccc3)[C@]3(O)C[C@H](OC(=O)[C@H](O)[C@@H](NC(=O)c4ccccc4)c4ccccc4)C(C)=C1C3(C)C)[C@]1(OC(C)=O)CO[C@@H]1C[C@@H]2O [PACLITAXEL],1,1
CC(=O)O[C@H]1C(=O)[C@@]2(C)[C@H]([C@H](OC(=O)c3ccccc3)[C@]3(O)C[C@H](OC(=O)[C@H](O)[C@@H](NC(=O)c4cccc(Cl)c4)c4ccccc4)C(C)=C1C3(C)C)[C@]1(OC(C)=O)CO[C@@H]1C[C@@H]2O,2,1.8
CC(=O)O[C@H]1C(=O)[C@@]2(C)[C@H]([C@H](OC(=O)c3ccccc3)[C@]3(O)C[C@H](OC(=O)[C@H](O)[C@@H](NC(=O)c4cccc(N(C)C)c4)c4ccccc4)C(C)=C1C3(C)C)[C@]1(OC(C)=O)CO[C@@H]1C[C@@H]2O,1.4,1.6

# — ChEMBL document CHEMBL1150492, “Topliss approach to the synthesis of biologically active substituted N-benzoyl taxol analogues” (1994)
